Laboratory results as given in PubChem BioAssay (NCI).
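Following 48 hours of exposure in 96-well plates, responses at five concentrations were used to interpolate endpoints linearly. Abbreviation: GI50, concentration required for 50% inhibition of growth. TGI marks complete inhibition of growth.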

Legend:
Experiment in all cases: inhibition of tumour cell growth, NCI panel, 48 h
NCI-H23 lung = test system: NCI-H23 lung
NCI-H460 lung = test system: NCI-H460 lung
NCI-H522 lung = test system: NCI-H522 lung
NCI/ADR-RES ovarian = test system: NCI/ADR-RES ovarian
OVCAR-3 ovarian = test system: OVCAR-3 ovarian
OVCAR-4 ovarian = test system: OVCAR-4 ovarian
OVCAR-5 ovarian = test system: OVCAR-5 ovarian
OVCAR-8 ovarian = test system: OVCAR-8 ovarian
PC-3 prostate = test system: PC-3 prostate
RPMI-8226 leukemia = test system: RPMI-8226 leukemia
RXF 393 renal = test system: RXF 393 renal
SF-268 CNS = test system: SF-268 CNS
SF-295 CNS = test system: SF-295 CNS
SF-539 CNS = test system: SF-539 CNS
SK-MEL-2 melanoma = test system: SK-MEL-2 melanoma
SK-MEL-28 melanoma = test system: SK-MEL-28 melanoma
SK-MEL-5 melanoma = test system: SK-MEL-5 melanoma
SK-OV-3 ovarian = test system: SK-OV-3 ovarian
SN12C renal = test system: SN12C renal
SNB-19 CNS = test system: SNB-19 CNS
SNB-75 CNS = test system: SNB-75 CNS
SR leukemia = test system: SR leukemia
SW-620 colon = test system: SW-620 colon
T-47D breast = test system: T-47D breast
TK-10 renal = test system: TK-10 renal
U251 CNS = test system: U251 CNS
UACC-257 melanoma = test system: UACC-257 melanoma
UACC-62 melanoma = test system: UACC-62 melanoma
UO-31 renal = test system: UO-31 renal

COc1ccc(C(=O)c2cc(OC)c(OC)c(OC)c2)cc1OC(=O)C(Cl)(Cl)Cl
TGI (NCI-H23 lung): > 100 µM
GI50 (NCI-H460 lung): 0.0388 µM
TGI (NCI-H460 lung): > 100 µM
GI50 (NCI-H522 lung): 0.0169 µM
TGI (NCI-H522 lung): > 100 µM
GI50 (NCI/ADR-RES ovarian): < 0.011 µM
TGI (NCI/ADR-RES ovarian): > 100 µM
GI50 (OVCAR-3 ovarian): 0.0278 µM
TGI (OVCAR-3 ovarian): > 100 µM
GI50 (OVCAR-4 ovarian): 0.122 µM
TGI (OVCAR-4 ovarian): > 100 µM
GI50 (OVCAR-5 ovarian): 4.49 µM
TGI (OVCAR-5 ovarian): > 100 µM
GI50 (OVCAR-8 ovarian): 0.0441 µM
TGI (OVCAR-8 ovarian): > 100 µM
GI50 (PC-3 prostate): < 0.0106 µM
TGI (PC-3 prostate): > 100 µM
GI50 (RPMI-8226 leukemia): < 0.0202 µM
TGI (RPMI-8226 leukemia): 27.2 µM
GI50 (RXF 393 renal): 0.0337 µM
TGI (RXF 393 renal): > 100 µM
GI50 (SF-268 CNS): 0.0736 µM
TGI (SF-268 CNS): > 100 µM
GI50 (SF-295 CNS): 0.0792 µM
TGI (SF-295 CNS): > 100 µM
GI50 (SF-539 CNS): 0.0134 µM
TGI (SF-539 CNS): 0.056 µM
GI50 (SK-MEL-2 melanoma): 85.3 µM
TGI (SK-MEL-2 melanoma): > 100 µM
GI50 (SK-MEL-28 melanoma): 25.1 µM
TGI (SK-MEL-28 melanoma): > 100 µM
GI50 (SK-MEL-5 melanoma): 0.0325 µM
TGI (SK-MEL-5 melanoma): 0.329 µM
GI50 (SK-OV-3 ovarian): 0.0762 µM
TGI (SK-OV-3 ovarian): > 100 µM
GI50 (SN12C renal): 0.0579 µM
TGI (SN12C renal): > 100 µM
GI50 (SNB-19 CNS): 0.0452 µM
TGI (SNB-19 CNS): > 100 µM
GI50 (SNB-75 CNS): < 0.01 µM
TGI (SNB-75 CNS): > 100 µM
GI50 (SR leukemia): < 0.01 µM
TGI (SR leukemia): > 100 µM
GI50 (SW-620 colon): < 0.01 µM
TGI (SW-620 colon): > 100 µM
GI50 (T-47D breast): 2.4 µM
TGI (T-47D breast): > 100 µM
GI50 (TK-10 renal): 34.1 µM
TGI (TK-10 renal): > 100 µM
GI50 (U251 CNS): 0.0384 µM
TGI (U251 CNS): > 100 µM
GI50 (UACC-257 melanoma): > 100 µM
TGI (UACC-257 melanoma): > 100 µM
GI50 (UACC-62 melanoma): 0.628 µM
TGI (UACC-62 melanoma): > 100 µM
GI50 (UO-31 renal): 0.54 µM
TGI (UO-31 renal): > 100 µM
